Patent US10800791B2, “Triazole ACC inhibitors and uses thereof” (Gilead Apollo, LLC, priority 2015, dated 2020)
Converted amounts (≈) assume the structure as drawn. Where two headings read alike, the source gives them in different places.

Assays:
C. parapsilosis = test: Antifungal Activity Assay (broth microtiter MIC), C. parapsilosis; assay type: cell-based, Candida parapsilosis; conditions: Lodderomyces parapsilosis, ATCC22019, 48 h
In short: (§1)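 Broth microdilution per CLSI M27-A3 in RPMI 1640+MOPS, inoculum 2.5×10^3 CFU/mL final from overnight Sabouraud dextrose agar cultures at 35° C. Compounds diluted from DMSO stock to 128 μg/mL in water. MIC read visually versus growth control at 48 h.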

C. albicans = test: Antifungal Activity Assay (broth microtiter MIC), C. albicans; assay type: cell-based, Candida albicans; conditions: Candida albicans, ATCC90028, 48 h
In short: as §1

fungal (fACC2) = fungal (fACC2) (UniProt Q00955); conditions: read-out: fACC2 (in vitro ACC2 Inhibition Assay, IC50); Table 2b, additional results; ADP-Glo, 5 nM ACC2, 20 μM ATP, 20 μM acetyl-CoA
Description: An exemplary procedure for the in vitro ACC inhibition assay, which can be used to determine the inhibitory action of compounds of the invention toward either human (hACC2) or fungal (fACC2), follows. The ADP-Glo™ Kinase Assay kit from Promega was used. The ADP-Glo™ Kinase Assay is a luminescent ADP detection assay to measure enzymatic activity by quantifying the amount of ADP produced during an enzyme reaction. The assay is performed in two steps; first, after the enzyme reaction, an equal volume of ADP-Glo™ Reagent is added to terminate the reaction and deplete the remaining ATP. Second, the Kinase Detection Reagent is added to simultaneously convert ADP to ATP and allow the newly synthesized ATP to be measured using a luciferase/luciferin reaction. Luminescence can be correlated to ADP concentrations by using an ATP-to-ADP conversion curve. […] 50 μL of the compound being tested (600 μM in DMSO) was added to a 384-well dilution plate. The compound was diluted 1:3 in succession in DMSO for each row for 11 wells. 0.5 μL ACC2 working solution was added to 384-well white Optiplate assay plate. 0.5 μL diluted compound solution in each column from step 2 was added to assay plate, each row containing 2 replicates. […] The plates were incubated at room temperature for 15 minutes. 5 μL substrate working solution was added to each well to initiate reaction. Final ACC2 reaction concentrations consist of: 5 nM ACC2, 20 μM ATP, 20 μM acetyl-CoA, 12 mM NaHCO3, 0.01% Brij35, 2 mM DTT, 5% DMSO, test compound concentrations: 30 μM, 10 μM, 3.33 μM, 1.11 μM, 0.37 μM, 0.123 μM, 0.0411 μM, 0.0137 μM, 0.00457 μM, 0.00152 μM, and 0.00051 μM. Plates were incubated at room temperature for 60 minutes. 10 μL ADP glo reagent was added. Plates were incubated at room temperature for 40 minutes. 20 μL kinase detection reagent was added. Plates were incubated at room temperature for 40 minutes, and then read on a Perkin Elmer EnVision 2104 plate reader for luminescence as Relative Light Units (RLU).
Data for each concentration, as well as the positive and negative controls were averaged, and the standard deviation calculated. Percent inhibition was calculated by the formula: 100×(average negative control−compound)/(average negative control−average positive control). The IC50 for each compound was calculated by fitting the data with a non-linear regression equation: Y=Bottom+(Top−Bottom)/(1+10 ((Log IC50−X)*HillSlope)), where X is the log of compound concentration and Y is percent inhibition.

C. krusei = test: Antifungal Activity Assay (broth microtiter MIC), C. krusei; assay type: cell-based, Candida krusei; conditions: Pichia kudriavzevii, ATCC6258, 48 h
In short: as §1

human (hACC2) = human (hACC2) (Homo sapiens, UniProt O00763); test: In vitro ACC inhibition assay (ADP-Glo), hACC2; assay type: biochemical; conditions: Table 2b, additional results, 5 nM ACC2, 20 μM ATP, 20 μM acetyl-CoA
Description: The detailed procedure is as follows. […] 10 μL ADP glo reagent was added. […] 20 μL kinase detection reagent was added.

[1] = Table 3b (additional results), ATCC 22019, 3 replicates, MIC recorded at 48 h, read-out: MIC, C. parapsilosis ATCC 22019
[2] = Table 3b (additional results), ATCC 90028, 3 replicates, MIC recorded at 48 h, read-out: MIC, C. albicans ATCC 90028
[3] = Table 3b (additional results), ATCC 6258, 3 replicates, MIC recorded at 48 h, read-out: MIC, C. krusei ATCC 6258
[4] = read-out: MIC, C. parapsilosis ATCC 22019, Table 3b (additional results), 3 replicates, MIC recorded at 48 h
[5] = read-out: MIC, C. albicans ATCC 90028, Table 3b (additional results), 3 replicates, MIC recorded at 48 h
[6] = read-out: MIC, C. krusei ATCC 6258, Table 3b (additional results), 3 replicates, MIC recorded at 48 h

Chain of fungal (fACC2) (Q00955 whole entry): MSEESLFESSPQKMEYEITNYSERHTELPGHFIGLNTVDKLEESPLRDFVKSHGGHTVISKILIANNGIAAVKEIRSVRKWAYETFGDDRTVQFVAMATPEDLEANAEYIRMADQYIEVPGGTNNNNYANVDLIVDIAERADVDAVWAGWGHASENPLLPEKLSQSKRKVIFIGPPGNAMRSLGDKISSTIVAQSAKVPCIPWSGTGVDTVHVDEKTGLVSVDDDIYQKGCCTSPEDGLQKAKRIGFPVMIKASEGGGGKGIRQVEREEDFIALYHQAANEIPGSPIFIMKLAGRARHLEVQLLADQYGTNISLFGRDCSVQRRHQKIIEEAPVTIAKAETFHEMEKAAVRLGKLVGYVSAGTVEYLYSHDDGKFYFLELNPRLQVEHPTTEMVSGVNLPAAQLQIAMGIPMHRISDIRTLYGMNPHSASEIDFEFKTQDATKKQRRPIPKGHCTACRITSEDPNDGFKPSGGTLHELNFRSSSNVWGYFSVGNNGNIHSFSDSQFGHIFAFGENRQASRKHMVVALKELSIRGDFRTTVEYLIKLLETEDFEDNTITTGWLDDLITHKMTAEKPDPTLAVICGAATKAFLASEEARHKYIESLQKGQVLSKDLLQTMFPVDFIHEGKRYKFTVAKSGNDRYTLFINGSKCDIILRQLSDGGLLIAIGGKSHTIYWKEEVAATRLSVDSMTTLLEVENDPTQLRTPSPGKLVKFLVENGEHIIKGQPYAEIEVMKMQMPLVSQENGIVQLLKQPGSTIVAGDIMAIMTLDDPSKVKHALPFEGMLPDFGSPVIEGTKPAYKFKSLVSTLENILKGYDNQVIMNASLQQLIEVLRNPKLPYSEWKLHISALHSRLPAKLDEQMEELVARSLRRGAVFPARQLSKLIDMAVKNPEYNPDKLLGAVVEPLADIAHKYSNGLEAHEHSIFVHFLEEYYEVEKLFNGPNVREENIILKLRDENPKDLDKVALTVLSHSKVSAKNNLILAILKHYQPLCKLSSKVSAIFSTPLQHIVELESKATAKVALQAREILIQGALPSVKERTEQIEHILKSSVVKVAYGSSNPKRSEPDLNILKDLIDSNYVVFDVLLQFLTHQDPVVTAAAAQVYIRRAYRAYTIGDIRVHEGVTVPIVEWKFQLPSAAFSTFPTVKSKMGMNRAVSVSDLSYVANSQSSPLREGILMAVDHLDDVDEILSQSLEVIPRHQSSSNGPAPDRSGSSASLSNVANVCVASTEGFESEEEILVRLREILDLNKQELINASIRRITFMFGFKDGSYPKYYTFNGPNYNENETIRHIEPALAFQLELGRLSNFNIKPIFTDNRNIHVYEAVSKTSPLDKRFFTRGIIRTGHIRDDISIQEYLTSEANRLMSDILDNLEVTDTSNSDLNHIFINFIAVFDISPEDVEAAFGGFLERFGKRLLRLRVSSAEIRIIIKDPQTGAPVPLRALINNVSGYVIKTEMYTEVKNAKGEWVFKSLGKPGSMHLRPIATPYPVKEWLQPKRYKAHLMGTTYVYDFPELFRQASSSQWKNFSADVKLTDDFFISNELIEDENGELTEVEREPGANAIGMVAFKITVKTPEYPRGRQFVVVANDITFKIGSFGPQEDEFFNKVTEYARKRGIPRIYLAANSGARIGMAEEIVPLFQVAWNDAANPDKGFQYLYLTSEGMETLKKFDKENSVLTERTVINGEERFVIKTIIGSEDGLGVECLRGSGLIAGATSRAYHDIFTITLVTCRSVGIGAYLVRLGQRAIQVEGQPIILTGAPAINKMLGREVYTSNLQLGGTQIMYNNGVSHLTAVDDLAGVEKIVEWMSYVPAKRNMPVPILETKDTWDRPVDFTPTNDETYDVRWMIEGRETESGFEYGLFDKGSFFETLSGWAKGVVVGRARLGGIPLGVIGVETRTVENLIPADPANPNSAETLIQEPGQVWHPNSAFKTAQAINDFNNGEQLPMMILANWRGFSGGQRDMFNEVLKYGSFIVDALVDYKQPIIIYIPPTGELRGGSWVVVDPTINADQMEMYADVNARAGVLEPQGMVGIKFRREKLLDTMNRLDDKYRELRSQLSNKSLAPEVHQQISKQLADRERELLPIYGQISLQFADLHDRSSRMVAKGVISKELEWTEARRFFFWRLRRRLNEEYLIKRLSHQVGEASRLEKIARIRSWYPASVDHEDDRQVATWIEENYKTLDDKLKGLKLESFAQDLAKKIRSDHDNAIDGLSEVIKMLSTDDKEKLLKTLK
Chain of human (hACC2) (O00763 whole entry): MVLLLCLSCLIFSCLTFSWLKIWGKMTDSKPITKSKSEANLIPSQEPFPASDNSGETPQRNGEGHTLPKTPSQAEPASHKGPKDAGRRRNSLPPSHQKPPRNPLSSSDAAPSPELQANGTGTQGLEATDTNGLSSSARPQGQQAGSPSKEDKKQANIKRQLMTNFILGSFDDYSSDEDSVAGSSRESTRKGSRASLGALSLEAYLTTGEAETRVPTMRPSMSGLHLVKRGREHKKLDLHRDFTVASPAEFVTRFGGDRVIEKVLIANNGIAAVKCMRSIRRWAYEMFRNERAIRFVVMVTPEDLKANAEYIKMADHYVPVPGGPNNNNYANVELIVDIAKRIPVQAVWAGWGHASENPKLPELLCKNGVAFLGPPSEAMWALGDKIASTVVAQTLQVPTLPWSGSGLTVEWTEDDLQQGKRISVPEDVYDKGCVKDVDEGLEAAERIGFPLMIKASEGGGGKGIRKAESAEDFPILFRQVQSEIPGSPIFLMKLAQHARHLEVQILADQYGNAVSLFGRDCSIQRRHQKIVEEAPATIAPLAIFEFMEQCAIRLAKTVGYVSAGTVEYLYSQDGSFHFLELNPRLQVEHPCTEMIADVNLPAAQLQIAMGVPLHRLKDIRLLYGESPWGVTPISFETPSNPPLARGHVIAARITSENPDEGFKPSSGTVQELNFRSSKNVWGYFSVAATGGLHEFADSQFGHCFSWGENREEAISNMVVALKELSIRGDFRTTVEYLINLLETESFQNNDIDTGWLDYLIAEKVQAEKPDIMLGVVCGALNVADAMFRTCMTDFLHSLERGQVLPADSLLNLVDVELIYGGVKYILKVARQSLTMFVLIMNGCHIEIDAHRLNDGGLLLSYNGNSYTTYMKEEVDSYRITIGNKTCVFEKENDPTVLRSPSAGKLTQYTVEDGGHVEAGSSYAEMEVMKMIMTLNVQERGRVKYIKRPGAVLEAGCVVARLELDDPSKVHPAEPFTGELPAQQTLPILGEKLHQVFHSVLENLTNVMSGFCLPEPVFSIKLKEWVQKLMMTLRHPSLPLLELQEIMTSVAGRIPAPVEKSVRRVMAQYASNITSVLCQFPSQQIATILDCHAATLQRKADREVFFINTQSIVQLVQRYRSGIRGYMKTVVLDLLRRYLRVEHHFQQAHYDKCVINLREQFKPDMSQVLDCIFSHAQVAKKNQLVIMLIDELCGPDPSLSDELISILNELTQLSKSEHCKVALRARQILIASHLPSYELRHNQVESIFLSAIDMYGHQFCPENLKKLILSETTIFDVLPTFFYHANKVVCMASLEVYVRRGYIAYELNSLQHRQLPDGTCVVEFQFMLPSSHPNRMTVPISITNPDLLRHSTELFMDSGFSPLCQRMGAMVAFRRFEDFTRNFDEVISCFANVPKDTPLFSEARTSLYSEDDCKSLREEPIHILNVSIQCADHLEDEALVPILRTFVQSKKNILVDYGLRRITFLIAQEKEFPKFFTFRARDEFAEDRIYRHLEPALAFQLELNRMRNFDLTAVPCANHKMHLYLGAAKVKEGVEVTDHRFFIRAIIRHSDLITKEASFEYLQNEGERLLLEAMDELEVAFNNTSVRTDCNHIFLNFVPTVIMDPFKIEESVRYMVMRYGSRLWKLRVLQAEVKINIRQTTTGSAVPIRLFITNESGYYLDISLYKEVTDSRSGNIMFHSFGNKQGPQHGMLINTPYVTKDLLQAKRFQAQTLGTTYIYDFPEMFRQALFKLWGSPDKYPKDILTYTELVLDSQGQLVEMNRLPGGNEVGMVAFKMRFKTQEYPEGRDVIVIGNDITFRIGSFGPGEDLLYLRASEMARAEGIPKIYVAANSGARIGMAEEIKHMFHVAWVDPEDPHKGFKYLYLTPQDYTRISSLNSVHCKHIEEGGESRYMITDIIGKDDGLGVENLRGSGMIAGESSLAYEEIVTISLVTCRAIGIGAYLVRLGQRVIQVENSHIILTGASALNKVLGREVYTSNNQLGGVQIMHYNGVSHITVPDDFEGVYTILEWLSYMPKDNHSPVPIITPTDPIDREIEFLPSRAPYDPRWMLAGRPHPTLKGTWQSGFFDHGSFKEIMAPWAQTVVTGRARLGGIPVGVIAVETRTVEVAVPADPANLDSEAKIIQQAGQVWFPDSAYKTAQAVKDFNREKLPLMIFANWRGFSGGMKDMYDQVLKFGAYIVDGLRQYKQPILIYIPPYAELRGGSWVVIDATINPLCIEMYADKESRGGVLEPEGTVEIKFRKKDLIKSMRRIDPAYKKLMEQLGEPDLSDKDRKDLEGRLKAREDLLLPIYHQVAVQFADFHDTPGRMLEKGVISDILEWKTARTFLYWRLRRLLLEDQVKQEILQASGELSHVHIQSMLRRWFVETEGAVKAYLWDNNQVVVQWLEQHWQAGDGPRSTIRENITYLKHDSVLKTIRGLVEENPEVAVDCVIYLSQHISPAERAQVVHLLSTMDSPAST

SMILES	MIC (C. parapsilosis; [1])	MIC (C. albicans; [2])	IC50 (fungal (fACC2))	MIC (C. krusei; [3])	IC50 (human (hACC2))	MIC (C. parapsilosis; [4])	MIC (C. albicans; [5])	MIC (C. krusei; [6])
COc1ccc(Cl)cc1[C@H](Cn1c(=O)n(C(C)(C)C(=O)NC2CCC2)c(=O)c2c(C)c(-n3nccn3)sc21)OC1CCOCC1 [Compound I-228]	0.25 to 1 mg/L (≈ 0.38 to 1.52 µM)	0.25 to 1 mg/L (≈ 0.38 to 1.52 µM)	1 to 5 nM	0.06 to 0.249 mg/L (≈ 0.0913 to 0.379 µM)	5 to 10 nM			
CCc1ccc(F)cc1[C@H](Cn1c(=O)n(C(C)(C)C(=O)NC2CCC2)c(=O)c2c(C)c(-n3nccn3)sc21)OC1CCOCC1 [Compound I-232]	1.01 to 2 mg/L (≈ 1.58 to 3.13 µM)	2.01 to 4 mg/L (≈ 3.15 to 6.26 µM)	1 to 5 nM	1.01 to 2 mg/L (≈ 1.58 to 3.13 µM)	5 to 10 nM			
COc1ccc(F)cc1[C@H](Cn1c(=O)n(C(C)(C)C(=O)NC(C)C)c(=O)c2c(C)c(-n3nccn3)sc21)O[C@H]1C[C@@H](OCc2ccccc2)C1 [Compound I-233]	0.25 to 1 mg/L (≈ 0.355 to 1.42 µM)	0.25 to 1 mg/L (≈ 0.355 to 1.42 µM)	1 to 5 nM	0.25 to 1 mg/L (≈ 0.355 to 1.42 µM)	10 to 40 nM			
Cc1c(-n2nccn2)sc2c1c(=O)n(C(C)(C)C(=O)NC(C)C)c(=O)n2C[C@H](OCCO)c1cc(F)ccc1OCc1ccccc1 [Compound I-237]	1.01 to 2 mg/L (≈ 1.52 to 3.01 µM)	1.01 to 2 mg/L (≈ 1.52 to 3.01 µM)	1 to 5 nM	1.01 to 2 mg/L (≈ 1.52 to 3.01 µM)	10 to 40 nM			
CCc1ccccc1[C@H](Cn1c(=O)n(C(C)(C)C(=O)NC(C)C)c(=O)c2c(C)c(-n3nccn3)sc21)O[C@H]1CC[C@@H](C#N)CC1 [Compound I-242]			1 to 5 nM		1 to 5 nM	1.01 to 2 mg/L (≈ 1.6 to 3.17 µM)	1.01 to 2 mg/L (≈ 1.6 to 3.17 µM)	1.01 to 2 mg/L (≈ 1.6 to 3.17 µM)
CCc1ccc(F)cc1[C@H](Cn1c(=O)n(C(C)(C)C(=O)NC(C)C)c(=O)c2c(C)c(-n3nccn3)sc21)OC[C@H](C)C#N [Compound I-243]	2.01 to 4 mg/L (≈ 3.3 to 6.56 µM)	2.01 to 4 mg/L (≈ 3.3 to 6.56 µM)	1 to 5 nM	> 4.01 mg/L	> 40 nM			
CCc1ccc(F)cc1[C@H](Cn1c(=O)n(C(C)(C)C(=O)NC(C)C)c(=O)c2c(C)c(-n3nccn3)sc21)OC[C@@H](C)C#N [Compound I-244]	2.01 to 4 mg/L (≈ 3.3 to 6.56 µM)	2.01 to 4 mg/L (≈ 3.3 to 6.56 µM)	1 to 5 nM	> 4.01 mg/L	> 40 nM			
Cc1c(-n2nccn2)sc2c1c(=O)n(C(C)(C)C(=O)NC(C)C)c(=O)n2C[C@H](OCCC#N)c1cc(F)ccc1OCc1ccccc1 [Compound I-249]	1.01 to 2 mg/L (≈ 1.5 to 2.97 µM)	2.01 to 4 mg/L (≈ 2.98 to 5.94 µM)	0.3 to 1 nM	2.01 to 4 mg/L (≈ 2.98 to 5.94 µM)	5 to 10 nM			
COc1ccc(F)cc1[C@H](Cn1c(=O)n(C(C)(C)C(=O)NC(C)C)c(=O)c2c(C)c(-n3nccn3)sc21)OCCOC(=O)C(C)C [Compound I-250]	0.25 to 1 mg/L (≈ 0.38 to 1.52 µM)	1.01 to 2 mg/L (≈ 1.53 to 3.04 µM)	1 to 5 nM	0.25 to 1 mg/L (≈ 0.38 to 1.52 µM)	5 to 10 nM			
COc1ccc(F)cc1[C@@H](Cn1c(=O)n(C(C)(C)C(=O)NC(C)C)c(=O)c2c(C)c(-n3nccn3)sc21)OC(=O)CO [Compound I-261]	1.01 to 2 mg/L (≈ 1.68 to 3.32 µM)	0.25 to 1 mg/L (≈ 0.415 to 1.66 µM)	0.3 to 1 nM	0.06 to 0.249 mg/L (≈ 0.0996 to 0.413 µM)	5 to 10 nM			
COc1ccc(F)cc1[C@@H](Cn1c(=O)n(C(C)(C)C(=O)NC(C)C)c(=O)c2c(C)c(-n3nccn3)sc21)OC(=O)C(C)(C)O [Compound I-263]			0.3 to 1 nM		10 to 40 nM	1.01 to 2 mg/L (≈ 1.6 to 3.17 µM)	0.25 to 1 mg/L (≈ 0.396 to 1.59 µM)	0.25 to 1 mg/L (≈ 0.396 to 1.59 µM)
CCOC(=O)[C@H]1CC[C@@H](O[C@@H](Cn2c(=O)n(C(C)(C)C(=O)NC(C)C)c(=O)c3c(C)c(-n4nccn4)sc32)c2cc(F)ccc2OC)CC1 [Compound I-264]	0.25 to 1 mg/L (≈ 0.358 to 1.43 µM)	0.25 to 1 mg/L (≈ 0.358 to 1.43 µM)	1 to 5 nM	0.06 to 0.249 mg/L (≈ 0.0859 to 0.356 µM)	10 to 40 nM			
COc1ccc(F)cc1[C@H](Cn1c(=O)n(C(C)(C)C(=O)NC(C)C)c(=O)c2c(C)c(-n3nccn3)sc21)O[C@H]1CC[C@@H](C(=O)O)CC1 [Compound I-265]	0.25 to 1 mg/L (≈ 0.373 to 1.49 µM)	0.25 to 1 mg/L (≈ 0.373 to 1.49 µM)	1 to 5 nM	0.06 to 0.249 mg/L (≈ 0.0895 to 0.371 µM)	10 to 40 nM			
CCOC(=O)[C@H]1CC[C@H](O[C@@H](Cn2c(=O)n(C(C)(C)C(=O)NC(C)C)c(=O)c3c(C)c(-n4nccn4)sc32)c2cc(F)ccc2OC)CC1 [Compound I-269]	0.25 to 1 mg/L (≈ 0.358 to 1.43 µM)	0.25 to 1 mg/L (≈ 0.358 to 1.43 µM)	1 to 5 nM	0.06 to 0.249 mg/L (≈ 0.0859 to 0.356 µM)	> 40 nM			
COc1ccc(F)cc1[C@H](Cn1c(=O)n(C(C)(C)C(=O)NC(C)C)c(=O)c2c(C)c(-n3nccn3)sc21)O[C@H]1CC[C@H](C(=O)O)CC1 [Compound I-270]	0.25 to 1 mg/L (≈ 0.373 to 1.49 µM)	0.25 to 1 mg/L (≈ 0.373 to 1.49 µM)	0.3 to 1 nM	0.06 to 0.249 mg/L (≈ 0.0895 to 0.371 µM)	10 to 40 nM			
